Data taken from ChEMBL document CHEMBL5113493, “4th generation nonsteroidal aromatase inhibitors: An iterative SAR-guided design, synthesis, and biological evaluation towards picomolar dual binding inhibitors” (Eur J Med Chem, 2022).
pIC50: −log10 of the molar value.

Key:
MDA-MB-231 = assay: Cytotoxicity against human MDA-MB-231 cells at 1 uM measured after 48 hrs by BrdU colorimetric immunoassay; assay type: toxicity, cell-based; details: mda-mb-231, 48 h
MCF-10A = assay: Cytotoxicity against human MCF-10A cells at 1 uM measured after 48 hrs by BrdU colorimetric immunoassay; assay type: toxicity, cell-based
Aromatase = biological target: T1, Aromatase (Homo sapiens, UniProt P11511); assay type: cell-based, JEG-3
T1 sequence (P11511 whole entry): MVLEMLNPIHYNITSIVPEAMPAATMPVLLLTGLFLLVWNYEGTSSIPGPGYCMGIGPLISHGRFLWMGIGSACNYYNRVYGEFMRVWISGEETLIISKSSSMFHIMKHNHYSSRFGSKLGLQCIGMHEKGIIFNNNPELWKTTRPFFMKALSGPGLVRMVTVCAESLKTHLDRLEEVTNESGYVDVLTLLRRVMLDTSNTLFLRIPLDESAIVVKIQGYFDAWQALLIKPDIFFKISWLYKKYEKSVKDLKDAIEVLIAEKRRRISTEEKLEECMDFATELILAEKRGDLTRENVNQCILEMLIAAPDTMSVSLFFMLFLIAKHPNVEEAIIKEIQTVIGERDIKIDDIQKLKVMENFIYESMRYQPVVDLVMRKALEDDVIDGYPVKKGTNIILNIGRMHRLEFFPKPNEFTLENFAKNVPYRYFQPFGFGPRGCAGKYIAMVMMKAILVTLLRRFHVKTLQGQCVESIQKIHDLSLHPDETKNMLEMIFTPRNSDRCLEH

Cytochrome P450 3A4 = Cytochrome P450 3A4 (Homo sapiens, UniProt P08684)
Cytochrome P450 2D6 = Cytochrome P450 2D6 (Homo sapiens, UniProt P10635)
Cytochrome P450 1A2 = biological target: T2, Cytochrome P450 1A2 (Homo sapiens, UniProt P05177)
T2 sequence (P05177 whole entry): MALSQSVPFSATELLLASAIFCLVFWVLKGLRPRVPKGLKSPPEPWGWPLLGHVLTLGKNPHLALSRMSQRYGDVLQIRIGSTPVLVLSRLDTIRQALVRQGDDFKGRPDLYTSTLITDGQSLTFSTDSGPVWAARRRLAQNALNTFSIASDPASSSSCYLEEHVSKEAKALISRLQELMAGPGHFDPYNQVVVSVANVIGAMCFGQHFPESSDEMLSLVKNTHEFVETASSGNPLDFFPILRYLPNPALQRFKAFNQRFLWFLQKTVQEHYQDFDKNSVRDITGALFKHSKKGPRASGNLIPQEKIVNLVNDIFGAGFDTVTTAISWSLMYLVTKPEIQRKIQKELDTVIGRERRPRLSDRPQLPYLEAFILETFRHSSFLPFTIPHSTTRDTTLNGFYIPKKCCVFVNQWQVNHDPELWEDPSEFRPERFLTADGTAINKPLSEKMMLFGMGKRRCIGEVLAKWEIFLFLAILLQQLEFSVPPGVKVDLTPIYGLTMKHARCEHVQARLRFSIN

Cytochrome P450 2C9 = Cytochrome P450 2C9 (Homo sapiens, UniProt P11712)
Cytochrome P450 2C19 = Cytochrome P450 2C19 (Homo sapiens, UniProt P33261)
Chain of Cytochrome P450 2C19 (P33261 whole entry): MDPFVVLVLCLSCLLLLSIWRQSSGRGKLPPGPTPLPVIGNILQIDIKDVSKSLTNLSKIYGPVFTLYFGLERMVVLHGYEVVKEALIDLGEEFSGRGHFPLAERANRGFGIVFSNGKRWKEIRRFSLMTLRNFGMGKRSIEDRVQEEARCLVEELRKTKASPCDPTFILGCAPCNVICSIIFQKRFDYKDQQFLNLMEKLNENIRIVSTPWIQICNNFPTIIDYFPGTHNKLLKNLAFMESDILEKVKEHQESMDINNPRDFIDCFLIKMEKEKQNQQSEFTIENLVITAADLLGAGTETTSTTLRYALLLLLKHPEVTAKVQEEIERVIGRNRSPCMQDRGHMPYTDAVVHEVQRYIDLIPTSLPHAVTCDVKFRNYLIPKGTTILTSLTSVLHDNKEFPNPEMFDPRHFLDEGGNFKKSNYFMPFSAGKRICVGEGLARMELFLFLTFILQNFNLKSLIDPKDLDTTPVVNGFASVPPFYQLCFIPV

Chain of Cytochrome P450 2C9 (P11712 whole entry): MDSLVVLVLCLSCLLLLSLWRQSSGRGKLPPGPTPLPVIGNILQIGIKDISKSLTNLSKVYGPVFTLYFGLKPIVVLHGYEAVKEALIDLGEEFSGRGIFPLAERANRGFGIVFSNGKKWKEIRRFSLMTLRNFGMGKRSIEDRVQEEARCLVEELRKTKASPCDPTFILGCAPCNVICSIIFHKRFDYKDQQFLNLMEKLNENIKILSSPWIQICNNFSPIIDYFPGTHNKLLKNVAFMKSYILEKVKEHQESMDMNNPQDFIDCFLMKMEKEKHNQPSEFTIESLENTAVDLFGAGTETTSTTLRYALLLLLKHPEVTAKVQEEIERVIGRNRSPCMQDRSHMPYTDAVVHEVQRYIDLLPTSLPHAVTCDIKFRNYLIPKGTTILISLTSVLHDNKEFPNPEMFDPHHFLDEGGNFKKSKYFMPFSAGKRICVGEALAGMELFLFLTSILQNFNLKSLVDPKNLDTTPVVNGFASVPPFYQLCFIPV
Chain of Cytochrome P450 2D6 (P10635 whole entry): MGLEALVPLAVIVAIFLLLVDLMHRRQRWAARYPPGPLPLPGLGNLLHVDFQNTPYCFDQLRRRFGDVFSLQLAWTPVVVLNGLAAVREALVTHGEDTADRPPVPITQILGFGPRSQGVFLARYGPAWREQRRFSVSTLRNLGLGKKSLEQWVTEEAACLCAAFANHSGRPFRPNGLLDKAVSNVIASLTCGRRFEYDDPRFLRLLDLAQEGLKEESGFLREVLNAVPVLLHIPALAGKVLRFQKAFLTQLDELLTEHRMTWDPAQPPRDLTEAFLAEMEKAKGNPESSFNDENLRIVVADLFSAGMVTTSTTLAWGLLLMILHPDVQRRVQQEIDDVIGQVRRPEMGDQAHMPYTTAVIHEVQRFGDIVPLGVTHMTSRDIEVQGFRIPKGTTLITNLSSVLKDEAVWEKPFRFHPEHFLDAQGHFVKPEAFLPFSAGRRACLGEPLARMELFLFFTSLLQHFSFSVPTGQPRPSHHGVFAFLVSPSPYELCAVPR
Chain of Cytochrome P450 3A4 (P08684 whole entry): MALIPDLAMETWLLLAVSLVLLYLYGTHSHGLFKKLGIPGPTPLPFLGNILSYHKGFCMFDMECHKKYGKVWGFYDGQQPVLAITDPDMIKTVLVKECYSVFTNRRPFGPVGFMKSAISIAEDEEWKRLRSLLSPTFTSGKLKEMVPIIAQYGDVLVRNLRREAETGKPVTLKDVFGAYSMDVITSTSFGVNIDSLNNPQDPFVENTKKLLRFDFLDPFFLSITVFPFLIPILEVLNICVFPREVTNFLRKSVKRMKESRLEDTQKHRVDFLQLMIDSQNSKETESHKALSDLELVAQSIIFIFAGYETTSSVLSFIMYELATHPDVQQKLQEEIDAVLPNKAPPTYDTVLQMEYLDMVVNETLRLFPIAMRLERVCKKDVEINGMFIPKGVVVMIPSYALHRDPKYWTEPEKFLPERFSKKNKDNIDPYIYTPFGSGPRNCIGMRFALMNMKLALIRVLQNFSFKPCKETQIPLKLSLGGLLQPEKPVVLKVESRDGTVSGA

Row | pIC50 (Aromatase) | Structure (SMILES) | further results
1 |  | COc1ccc2cc(C(c3ccc(F)cc3)n3cncn3)oc2c1 (stereo not drawn) | Activity (MDA-MB-231): Non-Toxic; Activity (MCF-10A): Non-Toxic
2 | 11.00 | CCC#CCOc1ccc2c(=O)c3ccc(Cn4ccnc4)cc3oc2c1 | 
3 | 9.11 | CCC#CCOc1cc(Cn2ccnc2)c2oc3ccccc3c(=O)c2c1 | 
4 | 11.00 | CCC#CCOc1cc(Cn2ccnc2)c2c(=O)c3ccccc3oc2c1 | 
5 | 8.39 | CC#CCOc1ccc2cc(C(c3ccc(F)cc3)n3cncn3)oc2c1 (stereo not drawn) | 
6 | 9.28 | CC#CCOc1ccc2cc(C(c3ccc(Cl)cc3)n3cncn3)oc2c1 (stereo not drawn) | 
7 | 7.52 | Oc1ccc(C(c2cc3cc(Cl)ccc3o2)n2cncn2)cc1 (stereo not drawn) | 
8 | 9.41 | Oc1ccc2cc(C(c3ccc(F)cc3)n3cncn3)oc2c1 (stereo not drawn) | Activity (MDA-MB-231): Non-Toxic; Activity (MCF-10A): Non-Toxic
9 | 9.29 | CCC#CCOc1ccc2cc(C(c3ccc(F)cc3)n3cncn3)oc2c1 (stereo not drawn) | Activity (MDA-MB-231): Non-Toxic; Activity (MCF-10A): Non-Toxic
10 | < 6.00 | CCC#CCOc1ccc(C(c2cc3cc(Cl)ccc3o2)n2cncn2)cc1 (stereo not drawn) | 
11 | 8.25 | Oc1ccc2oc(C(c3ccc(Cl)cc3)n3cncn3)cc2c1 (stereo not drawn) | 
12 | 9.14 | CCC#CCOc1ccc2cc(C(c3ccc(C#N)cc3)n3cncn3)oc2c1 (stereo not drawn) | 
13 | 9.34 | CCOc1ccc2cc(C(c3ccc(Cl)cc3)n3cncn3)oc2c1 (stereo not drawn) | 
14 | < 6.00 | COc1ccc(C(c2cc3cc(Cl)ccc3o2)n2cncn2)cc1 (stereo not drawn) | 
15 | 8.70 | COc1ccc2oc(C(c3ccc(Cl)cc3)n3cncn3)cc2c1 (stereo not drawn) | 
16 | 8.99 | C#CCOc1ccc2cc(C(c3ccc(Cl)cc3)n3cncn3)oc2c1 (stereo not drawn) | 
17 | 10.05 | CC#CCOc1ccc2cc(C(c3ccc(C#N)cc3)n3cncn3)oc2c1 (stereo not drawn) | pIC50 (Cytochrome P450 3A4): < 4.60; pIC50 (Cytochrome P450 2D6): < 4.60; Activity (MDA-MB-231): Non-Toxic; pIC50 (Cytochrome P450 1A2): 5.54; pIC50 (Cytochrome P450 2C9): < 4.60; Activity (MCF-10A): Non-Toxic; pIC50 (Cytochrome P450 2C19): 5.66
18 | 7.68 | CCC#CCOc1ccc2oc(C(c3ccc(Cl)cc3)n3cncn3)cc2c1 (stereo not drawn) | 
19 | 8.56 | CCC#CCOc1ccc2cc(C(c3ccc(Cl)cc3)n3cncn3)oc2c1 (stereo not drawn) | 
20 |  | COc1cccc2c1C(=O)c1c(O)c3c(c(O)c1C2=O)C[C@@](O)(C(=O)CO)C[C@@H]3O[C@H]1C[C@H](N)[C@H](O)[C@H](C)O1 [DOXORUBICIN] | Activity (MDA-MB-231): Non-Toxic; Activity (MCF-10A): Non-Toxic
